Type in all cases: cell-based
In one assay the target is T1, human TLR9 (Homo sapiens, UniProt Q9NR96).
T1 sequence (Q9NR96 26-1032): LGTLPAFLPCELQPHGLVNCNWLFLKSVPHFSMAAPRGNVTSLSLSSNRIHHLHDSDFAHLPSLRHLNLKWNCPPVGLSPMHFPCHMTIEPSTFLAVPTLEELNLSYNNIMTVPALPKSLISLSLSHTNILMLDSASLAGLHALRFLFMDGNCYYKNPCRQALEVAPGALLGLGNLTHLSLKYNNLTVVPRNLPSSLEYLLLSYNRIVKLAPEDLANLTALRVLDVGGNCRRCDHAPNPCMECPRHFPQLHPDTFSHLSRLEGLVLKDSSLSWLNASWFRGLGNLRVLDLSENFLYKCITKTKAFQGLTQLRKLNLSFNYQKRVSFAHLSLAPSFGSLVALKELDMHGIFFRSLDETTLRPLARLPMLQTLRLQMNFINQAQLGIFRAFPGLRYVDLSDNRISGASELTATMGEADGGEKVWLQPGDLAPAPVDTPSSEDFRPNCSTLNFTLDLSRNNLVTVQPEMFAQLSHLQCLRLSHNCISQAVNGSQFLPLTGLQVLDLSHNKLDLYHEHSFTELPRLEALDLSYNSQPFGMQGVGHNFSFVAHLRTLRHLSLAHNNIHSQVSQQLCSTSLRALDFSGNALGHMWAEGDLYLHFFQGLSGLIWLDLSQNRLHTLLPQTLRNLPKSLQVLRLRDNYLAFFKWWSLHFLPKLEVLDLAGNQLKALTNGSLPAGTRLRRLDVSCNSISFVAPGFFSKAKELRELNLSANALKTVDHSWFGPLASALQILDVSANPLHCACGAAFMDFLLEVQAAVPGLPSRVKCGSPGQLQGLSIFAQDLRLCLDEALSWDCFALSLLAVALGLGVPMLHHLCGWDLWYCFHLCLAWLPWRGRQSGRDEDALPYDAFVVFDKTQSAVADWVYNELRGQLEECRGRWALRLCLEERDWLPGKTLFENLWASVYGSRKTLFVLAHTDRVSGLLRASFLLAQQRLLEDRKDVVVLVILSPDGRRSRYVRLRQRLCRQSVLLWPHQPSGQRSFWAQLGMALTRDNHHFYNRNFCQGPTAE
As to the kind of experiment: TLR9 inhibition reporter assay (HEK-Blue cells, SEAP reporter). The note with it: HEK-Blue cells overexpressing human TLR9; stimulated with ODN2006 5 nM; 22 hour incubation; SEAP readout. The gist of the method: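 HEK-Blue cells with NF-κB/AP-1-driven SEAP pre-treated 30 min with compound (0.05 nM–50 μM), then stimulated with gardiquimod 7.5 μM (TLR7), R848 15.9 μM (TLR8) or ODN2006 5 nM (TLR9). SEAP detected after 22 h at 37 °C; percent inhibition relative to agonist-plus-DMSO and known-inhibitor wells.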
(Reporter assays use an easily measured gene product as a stand-in for the process of interest.)

The next assay has as its target T2, human TLR7 (Homo sapiens, UniProt Q9NYK1).
T2 sequence (Q9NYK1 27-1049): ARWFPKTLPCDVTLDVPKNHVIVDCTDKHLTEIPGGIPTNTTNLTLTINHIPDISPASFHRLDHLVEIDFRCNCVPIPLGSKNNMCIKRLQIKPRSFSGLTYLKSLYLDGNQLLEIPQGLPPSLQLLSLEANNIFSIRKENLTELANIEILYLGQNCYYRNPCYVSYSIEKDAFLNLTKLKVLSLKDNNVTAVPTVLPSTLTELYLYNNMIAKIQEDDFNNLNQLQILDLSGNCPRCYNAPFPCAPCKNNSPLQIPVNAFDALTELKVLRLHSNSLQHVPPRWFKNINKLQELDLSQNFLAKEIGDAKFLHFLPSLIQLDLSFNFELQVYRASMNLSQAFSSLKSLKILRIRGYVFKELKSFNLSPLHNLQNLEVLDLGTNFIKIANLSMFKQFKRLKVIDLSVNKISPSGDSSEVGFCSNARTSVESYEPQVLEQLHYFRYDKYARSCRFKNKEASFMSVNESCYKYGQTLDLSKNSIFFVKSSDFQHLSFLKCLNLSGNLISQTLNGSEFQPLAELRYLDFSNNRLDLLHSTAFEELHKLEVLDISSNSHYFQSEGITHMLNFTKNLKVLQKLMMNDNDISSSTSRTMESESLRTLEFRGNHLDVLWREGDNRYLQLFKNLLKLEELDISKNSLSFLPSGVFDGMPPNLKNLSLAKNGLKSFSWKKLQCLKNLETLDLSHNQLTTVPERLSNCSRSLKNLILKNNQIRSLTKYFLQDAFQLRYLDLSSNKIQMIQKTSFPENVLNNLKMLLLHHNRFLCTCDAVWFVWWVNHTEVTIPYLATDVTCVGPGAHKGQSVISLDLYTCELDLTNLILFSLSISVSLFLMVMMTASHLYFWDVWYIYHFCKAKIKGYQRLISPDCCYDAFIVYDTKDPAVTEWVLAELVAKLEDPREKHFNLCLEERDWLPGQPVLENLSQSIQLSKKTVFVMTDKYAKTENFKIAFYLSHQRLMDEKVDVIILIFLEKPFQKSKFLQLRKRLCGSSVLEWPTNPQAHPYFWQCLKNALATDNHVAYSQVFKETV
Briefly: TLR7 inhibition reporter assay (HEK-Blue cells, SEAP reporter). The note with it: HEK-Blue cells overexpressing human TLR7; stimulated with gardiquimod 7.5 μM; 22 hour incubation; SEAP readout. The procedure:
(§1) TLR7/8/9 Inhibition Reporter Assays
(§2) HEK-Blue™-cells (Invivogen) overexpressing human TLR7, TLR8 or TLR9 receptors were used for screening inhibitors of these receptors using an inducible SEAP (secreted embryonic alkaline phosphatase) reporter gene under the control of the […] minimal promoter fused to five NF-κB and AP-1-binding sites. Briefly, cells are seeded into Greiner 384 well plates (15000 cells per well for TLR7, 20,000 for TLR8 and 25,000 for TLR9) and then treated with test compounds in DMSO to yield a final dose response concentration range of 0.05 nM-50 μM. After a 30 minute compound pre-treatment at room temperature, the cells are then stimulated with a TLR7 ligand (gardiquimod at a final concentration of 7.5 μM), TLR8 ligand (R848 at a final concentration of 15.9 μM) or TLR9 ligand (ODN2006 at a final concentration of 5 nM) to activate NF-κB and AP-1 which induce the production of SEAP. After a 22 hour incubation at 37° C., 5% CO2, SEAP levels are determined with the addition of HEK-Blue™ Detection reagent (Invivogen), a cell culture medium that allows for detection of SEAP, according to manufacturer's specifications. The percent inhibition is determined as the % reduction in the HEK-Blue signal present in wells treated with agonist plus DMSO alone compared to wells treated with a known inhibitor.

A further assay has as its target T3, human TLR8 (Homo sapiens, UniProt Q9NR97).
T3 sequence (Q9NR97 27-1041): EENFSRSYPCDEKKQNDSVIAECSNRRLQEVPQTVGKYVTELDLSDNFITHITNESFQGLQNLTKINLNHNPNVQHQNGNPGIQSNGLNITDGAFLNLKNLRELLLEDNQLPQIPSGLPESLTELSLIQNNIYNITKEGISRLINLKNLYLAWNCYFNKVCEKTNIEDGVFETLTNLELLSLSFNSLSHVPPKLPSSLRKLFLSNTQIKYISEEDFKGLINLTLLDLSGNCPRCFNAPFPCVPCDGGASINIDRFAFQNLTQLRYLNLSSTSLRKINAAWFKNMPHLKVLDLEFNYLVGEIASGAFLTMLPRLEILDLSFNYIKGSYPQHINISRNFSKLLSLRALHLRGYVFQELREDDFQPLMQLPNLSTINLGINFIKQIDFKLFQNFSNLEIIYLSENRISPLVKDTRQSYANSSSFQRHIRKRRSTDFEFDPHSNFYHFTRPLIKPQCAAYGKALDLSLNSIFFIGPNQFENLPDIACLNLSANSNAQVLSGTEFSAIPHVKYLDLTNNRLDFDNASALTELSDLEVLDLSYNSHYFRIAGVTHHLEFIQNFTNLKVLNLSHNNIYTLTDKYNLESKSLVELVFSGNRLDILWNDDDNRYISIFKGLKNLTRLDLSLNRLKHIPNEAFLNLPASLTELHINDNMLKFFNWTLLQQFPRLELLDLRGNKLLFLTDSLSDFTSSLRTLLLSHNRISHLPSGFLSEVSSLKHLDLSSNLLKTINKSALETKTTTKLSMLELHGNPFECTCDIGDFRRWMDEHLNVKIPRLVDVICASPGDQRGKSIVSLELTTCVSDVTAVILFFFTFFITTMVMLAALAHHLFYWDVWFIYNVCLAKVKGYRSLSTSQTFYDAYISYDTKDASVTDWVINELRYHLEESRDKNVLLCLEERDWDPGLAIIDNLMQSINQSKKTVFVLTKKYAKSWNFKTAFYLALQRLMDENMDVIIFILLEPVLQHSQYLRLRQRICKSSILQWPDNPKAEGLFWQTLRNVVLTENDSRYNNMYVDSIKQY
As to the kind of experiment: TLR8 inhibition reporter assay (HEK-Blue cells, SEAP reporter). As to conditions: HEK-Blue cells overexpressing human TLR8; stimulated with R848 15.9 μM; 22 hour incubation; SEAP readout. The procedure: as §1, §2

We go through nine compounds from US12486267B2, “Imidazo[1,2-A]pyridine and [1,2,4]triazolo[1,5-A]pyridine derivatives as TLR9 inhibitors for the treatment of fibrosis” (BRISTOL-MYERS SQUIBB COMPANY, priority 2020, dated 2025).

The term IC50 denotes the concentration needed to halve the response being measured. High values mean weaker potency in that assay, low ones greater potency in that assay. For the compound `COc1ccc(-c2cn3c(n2)CCC(C2CCN(C4CC5(C4)CN(CC(C)C)C5)CC2)C3)cc1OC` (racemic) [Example 52, 2-(3,4-dimethoxyphenyl)-6-(1-(2-isobutyl-2-azaspiro[3.3]heptan-6-yl)piperidin-4-yl)-5,6,7,8-tetrahydroimidazo[1,2-a]pyridine], the IC50 is 0.114 µM against human TLR9, 18 µM against human TLR7 and greater than 50 µM at human TLR8.

Take `COc1ccc(-c2cn3c(n2)CCC(C2CCN(C4CCN(CC5CC5)CC4)CC2)C3)cc1OC` (racemic) [Example 55, 6-(1′-(cyclopropylmethyl)-[1,4′-bipiperidin]-4-yl)-2-(3,4-dimethoxyphenyl)-5,6,7,8-tetrahydroimidazo[1,2-a]pyridine]: the IC50 was 0.038 µM at human TLR9, 1.6 µM at human TLR7 and greater than 50 µM against human TLR8.

In the case of `COc1ccc(-c2cn3c(n2)CC(C2CCN(C4CCN(C(C)C)CC4)CC2)CC3)cc1OC` (racemic) [Example 58, 2-(3,4-dimethoxyphenyl)-7-(1′-isopropyl-[1,4′-bipiperidin]-4-yl)-5,6,7,8-tetrahydroimidazo[1,2-a]pyridine], the IC50 against human TLR9 turned out to be 0.06 µM; against human TLR7, 13 µM; against human TLR8, 15 µM.

Consider `COc1ccc(-c2cn3c(n2)CC(C2CCN(C4CCN(CC(C)C)CC4)CC2)CC3)cc1OC` (racemic) [Example 59, 2-(3,4-dimethoxyphenyl)-7-(1′-isobutyl-[1,4′-bipiperidin]-4-yl)-5,6,7,8-tetrahydroimidazo[1,2-a]pyridine], for which the figures for the concentration for half-maximal inhibition (IC50) on human TLR9, on human TLR7 and against human TLR8 were 0.205 µM, 7.7 µM and greater than 50 µM, respectively.

As for `COc1ccc(-c2cn3cc(C4CCN(C5CC6CCC(C5)N6CC(C)C)CC4)cc(C)c3n2)cc1OC` (single isomer, unassigned) [Example 18, 2-(3,4-dimethoxyphenyl)-6-(1-(8-isobutyl-8-azabicyclo[3.2.1]octan-3-yl)piperidin-4-yl)-8-methylimidazo[1,2-a]pyridine], the half-inhibitory concentration (IC50) is 0.048 µM on human TLR9, 3.3 µM against human TLR7 and greater than 50 µM against human TLR8.

Turning to `COc1ccc(-c2cn3cc(C4CCN(C5CC6CCC(C5)N6CC(C)C)CC4)cc(C)c3n2)cc1OC` (single isomer, unassigned) [Example 19, 2-(3,4-dimethoxyphenyl)-6-(1-(8-isobutyl-8-azabicyclo[3.2.1]octan-3-yl)piperidin-4-yl)-8-methylimidazo[1,2-a]pyridine], the results for the IC50 against human TLR9, against human TLR7 and at human TLR8 were 0.058 µM, 2.4 µM and greater than 50 µM, respectively.

As for `COc1ccc(-c2cn3cc(C4CCN(C5CC6CCC(C5)N6CC5CC5)CC4)cc(C)c3n2)cc1OC` (single isomer, unassigned) [Example 20, 6-(1-(8-(cyclopropylmethyl)-8-azabicyclo[3.2.1]octan-3-yl)piperidin-4-yl)-2-(3,4-dimethoxyphenyl)-8-methylimidazo[1,2-a]pyridine], the IC50 against human TLR9 was 0.023 µM; against human TLR7, 1.5 µM; against human TLR8, greater than 50 µM.

For the compound `COc1ccc(-c2cn3cc(C4CCN(C5CC6CCC(C5)N6CC5CC5)CC4)cc(C)c3n2)cc1OC` (single isomer, unassigned) [Example 21, 6-(1-(8-(cyclopropylmethyl)-8-azabicyclo[3.2.1]octan-3-yl)piperidin-4-yl)-2-(3,4-dimethoxyphenyl)-8-methylimidazo[1,2-a]pyridine], the 50% inhibitory concentration (IC50) at human TLR9 is 0.126 µM; against human TLR7, 3 µM; against human TLR8 it was greater than 50 µM.

With `COc1ccc(-c2cn3cc(C4CCN(C5CC6CCC(C5)N6C(C)C)CC4)cc(C)c3n2)cc1OC` (single isomer, unassigned) [Example 22, 2-(3,4-dimethoxyphenyl)-6-(1-(8-isopropyl-8-azabicyclo[3.2.1]octan-3-yl)piperidin-4-yl)-8-methylimidazo[1,2-a]pyridine], the values for the concentration for half-maximal inhibition (IC50) on human TLR9, against human TLR7 and on human TLR8 were 0.03 µM, 1.2 µM and greater than 50 µM, respectively.
